The source of these data is publication PMC6471128, “Preparation and Identification of ACE Inhibitory Peptides from the Marine Macroalga Ulva intestinalis” (Marine Drugs, 2019).

Where two headings read alike, the source gives them in different places. Ends that are not written are not given here.

One series has as its system ACE. The note with it: cited from earlier work. An excerpt:
ACE inhibitors (ACEIs) inhibit ACE activity and reduce blood pressure by inhibiting the synthesis of angiotensin II or promoting the release of bradykinin. Although ACEIs, such as enalapril, captopril, and lisinopril, are widely used in hypertension treatments, synthetic ACEIs have a series of negative effects, including hypotension, cough, increased potassium levels and, angioedema. Consequently, the development of safe and effective antihypertensive drugs is important, and due to antihypertensive effects and safety, there has been an increasing interest in food-derived ACE inhibito ...

In series [1] the target is T1, ACE (from rabbit lung) (Oryctolagus cuniculus, UniProt P12822).
T1 construct: ACE (from rabbit lung); purchased Sigma Chemical Co. (St. Louis, MO, USA); host or cells: rabbit lung tissue
T1 sequence (P12822 34-1310): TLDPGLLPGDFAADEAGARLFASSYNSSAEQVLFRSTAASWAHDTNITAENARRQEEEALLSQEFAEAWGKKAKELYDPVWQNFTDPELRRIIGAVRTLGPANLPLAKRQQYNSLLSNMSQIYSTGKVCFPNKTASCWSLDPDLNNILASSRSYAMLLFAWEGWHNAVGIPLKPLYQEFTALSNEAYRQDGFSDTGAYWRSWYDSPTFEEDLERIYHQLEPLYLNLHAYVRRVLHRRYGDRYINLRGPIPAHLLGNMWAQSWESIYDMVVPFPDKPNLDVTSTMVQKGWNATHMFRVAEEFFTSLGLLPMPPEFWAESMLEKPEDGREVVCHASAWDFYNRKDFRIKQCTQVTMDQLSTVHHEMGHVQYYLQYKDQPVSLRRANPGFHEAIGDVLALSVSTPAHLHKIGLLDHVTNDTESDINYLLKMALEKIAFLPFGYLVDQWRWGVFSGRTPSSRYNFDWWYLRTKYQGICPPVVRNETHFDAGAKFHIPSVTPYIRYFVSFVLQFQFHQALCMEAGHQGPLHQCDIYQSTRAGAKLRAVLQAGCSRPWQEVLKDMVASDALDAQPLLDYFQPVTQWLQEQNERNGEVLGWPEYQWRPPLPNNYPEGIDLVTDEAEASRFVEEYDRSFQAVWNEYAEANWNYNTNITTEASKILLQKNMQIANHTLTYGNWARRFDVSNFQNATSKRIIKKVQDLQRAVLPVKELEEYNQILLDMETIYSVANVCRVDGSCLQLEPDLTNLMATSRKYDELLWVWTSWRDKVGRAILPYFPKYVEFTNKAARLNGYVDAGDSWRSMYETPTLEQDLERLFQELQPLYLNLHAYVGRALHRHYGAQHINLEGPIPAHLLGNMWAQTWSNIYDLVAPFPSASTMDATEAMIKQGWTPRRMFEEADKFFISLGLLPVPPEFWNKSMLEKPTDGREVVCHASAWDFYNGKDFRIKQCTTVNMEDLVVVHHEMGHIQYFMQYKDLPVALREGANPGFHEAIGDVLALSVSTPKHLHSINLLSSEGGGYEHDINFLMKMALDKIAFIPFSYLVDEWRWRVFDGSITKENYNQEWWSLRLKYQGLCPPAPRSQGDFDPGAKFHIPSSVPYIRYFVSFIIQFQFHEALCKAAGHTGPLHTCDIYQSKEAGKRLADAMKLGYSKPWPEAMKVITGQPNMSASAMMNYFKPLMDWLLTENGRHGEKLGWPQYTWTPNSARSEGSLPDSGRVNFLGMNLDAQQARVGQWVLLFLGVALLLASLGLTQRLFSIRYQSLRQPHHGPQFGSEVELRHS
In words: ACE inhibition and IC50 assay (FAPGG substrate). It counts as biochemical. As to the method: (§1) ACE inhibition was examined according to Shalaby et al. and Henda et al., with slight modifications. FAPGG and ACE were dissolved in 50 mM Tris-HCl (pH 7.5) containing 300 mM NaCl. A sample solution (40 μL) was mixed with 100 μL of 0.88 mM FAPGG solution, and the mixture was incubated at 37 °C for 5 min. To start the reaction, 60 μL of ACE solution (0.20 U/mL) was added; absorbance was measured at 340 nm and recorded every 1 min for 30 min using a SpectraMax 190 absorbance microplate reader (Molecular Devices, Sunnyvale, USA). The slope averaged over a linear interval of 10–30 min was taken as a measure of the ACE inhibitory activity. The degree of ACE inhibition was calculated according to the following equation: ACE inhibition rate (%) = [1 − (slope inhibitior/slope control)] × 100(2)
The activity of each sample was tested in triplicate. The IC50 value, the concentration of peptide required to reduce ACE activity by 50%, was determined by regression analysis of ACE inhibition (%) vs. peptide concentration.

For series [2], the target named is T1, ACE (from rabbit lung). Description: In vitro simulated gastrointestinal digestion (pepsin, then trypsin) followed by ACE inhibitory activity assay. It counts as in vitro ADME. The note with it: for stability for pepsin and trypsin digestion: in vitro digestion, read-out ACE inhibitory activity. How it is done: as §1
In vitro digestion was performed according to the method of Cing et.al. The purified peptide sample was mixed with 0.1 M phosphate buffer (pH 2.0) and pepsin (E/S 4%, w/w); the reaction was allowed to proceed for 2 h at 37 °C and stopped by heating at 100 °C for 10 min. Subsequently, the remaining suspension was adjusted to pH 8.0 with 5 M NaOH solution and further digested with trypsin (E/S 4%, w/w); the solution was incubated at 37 °C for 2 h and then heated at 100 °C for 10 min. The protein hydrolysate was centrifuged at 8000 rpm/min for 15 min, and the supernatant was assayed for ACE inhibitory activity.

The target of series [3] is T2, Angiotensin I-converting enzyme (from rabbit lung) (rabbit) (UniProt P12822).
T2 sequence: T1 sequence (P12822 34-1310)

The target in series [4] is T2, Angiotensin I-converting enzyme (from rabbit lung) (rabbit). The source holds these as a separate data set.
Where [5] appears, read: peptides from Undaria pinnatifida.
The mark [6] stands for this setting: peptides identified in fraction C2-8, FAPGG 0.88 mM, ACE 0.20 U/mL, 50 mM Tris-HCl pH 7.5, 300 mM NaCl, 37 °C, absorbance 340 nm, tested in triplicate.
Where [7] appears, read: purified ACE inhibitors, same values as in μM given in mg/mL.
[8] abbreviates: pH 2, synthetic peptide at 0.2 mg/mL, after pepsin hydrolysis for 2 h (0.1 M phosphate buffer pH 2.0, E/S 4% w/w, 37 °C).
[9] abbreviates: synthetic peptide at 0.2 mg/mL, Control (no digestion).
Setting [10] is: synthetic peptide at 0.2 mg/mL, pepsin hydrolysis for 2 h (pH 2.0, 37 °C) followed by trypsin hydrolysis for 2 h (pH 8.0, 37 °C), E/S 4% w/w each.
[11] abbreviates: peptides from Porphyra yezoensis.
The mark [12] stands for this setting: peptides purified from Ulva rigida protein hydrolysate.

As a reminder, the IC50 is the concentration that inhibits the measured activity by half. Regarding Tyr-Asn-Lys-Leu, the IC50 in the series on ACE (setting [5]) was 21 µM.
Broadly, the inhibition is the drop in the measured response relative to a control, in per cent. Regarding “MELVLR [MELVLR, Met-Glu-Leu-Val-Leu-Arg]”, the figures for the IC50 against ACE (from rabbit lung) [1] (setting [6]) and on ACE (from rabbit lung) [1] (setting [7]) were 237 µM and 236 µM, respectively. In addition, at ACE (from rabbit lung) [2], the “stability for pepsin and trypsin digestion” value was “good stability”. Further, the figures for the inhibition at 200 µg/mL at ACE (from rabbit lung) [2] (setting [8]), against ACE (from rabbit lung) [2] (setting [9]) and on ACE (from rabbit lung) [2] (setting [10]) were 56.84 ± 0.04%, 59.92 ± 0.04% and 58.63 ± 0.13%, respectively.
Ile-Tyr: the IC50 in the series with ACE (setting [11]) was 2.69 µM.
Regarding Lys-Phe-Tyr-Gly, the IC50 in the series with ACE (setting [5]) was 90.5 µM.
Turning to Met-Lys-Tyr, the IC50 in the series on ACE (setting [11]) is 7.26 µM.
With Leu-Arg-Tyr, the IC50 in the series on ACE (setting [11]) was 5.06 µM.
Tyr-Lys-Tyr-Tyr: the IC50 in the series with ACE (setting [5]) was 64.2 µM.
As for Gln-Val-Glu-Tyr, the IC50 with ACE (peptide from hydrolyzed Gracilariopsis lemaneiformis) was 474 µM.
Regarding Ile-Pro, in the series with ACE (setting [12]), the IC50 is 87.6 µM.
Take “FGMPLDR [FGMPLDR, Phe-Gly-Met-Pro-Leu-Asp-Arg]”: the IC50 against ACE (from rabbit lung) [1] (setting [6]) and at ACE (from rabbit lung) [1] (setting [7]) was 219 µM throughout. Further, on ACE (from rabbit lung) [2], the “stability for pepsin and trypsin digestion” value was “good stability”. Besides, the inhibition at 200 µg/mL on ACE (from rabbit lung) [2] (setting [8]) is 52.98 ± 0.19%; against ACE (from rabbit lung) [2] (setting [9]) it was 50.07 ± 0.07%; against ACE (from rabbit lung) [2] (setting [10]), 51.32 ± 0.02%.
As for Ala-Phe-Leu, the IC50 in the series on ACE (setting [12]) is 65.8 µM.
Turning to Ala-Lys-Tyr-Ser-Tyr, the IC50 with ACE (setting [11]) is 1.52 µM.
In the case of Ala-Ile-Tyr-Lys, the IC50 in the series with ACE (setting [5]) is 213 µM.
In series [3], MELVLR [Met-Glu-Leu-Val-Leu-Arg] came in with an ACE Inhibitory Activity (%) of the synthetic peptide at 0.2 mg/mL, after pepsin hydrolysis for 2 h of 56.8%; an ACE Inhibitory Activity (%) of the synthetic peptide at 0.2 mg/mL, after pepsin hydrolysis for 2 h followed by trypsin hydrolysis for 2 h of 58.6%; an ACE Inhibitory Activity (%) of the synthetic peptide at 0.2 mg/mL, control (not digested) of 59.9%. The IC50 of ACE inhibition (hydrolysis of FAPGG by ACE, absorbance at 340 nm, 37 °C, 50 mM Tris-HCl pH 7.5, 300 mM NaCl) in series [4] turned out to be 237 μM.
Consider FGMPLDR [Phe-Gly-Met-Pro-Leu-Asp-Arg], for which, in series [3], the ACE Inhibitory Activity (%) of the synthetic peptide at 0.2 mg/mL, after pepsin hydrolysis for 2 h amounted to 53%; the ACE Inhibitory Activity (%) of the synthetic peptide at 0.2 mg/mL, after pepsin hydrolysis for 2 h followed by trypsin hydrolysis for 2 h is 51.3%; the ACE Inhibitory Activity (%) of the synthetic peptide at 0.2 mg/mL, control (not digested) stood at 50.1%. In series [4], the IC50 of ACE inhibition (hydrolysis of FAPGG by ACE, absorbance at 340 nm, 37 °C, 50 mM Tris-HCl pH 7.5, 300 mM NaCl) came out at 219 μM.
